Assay results as given in patent publication US7750017B2, “Heterocycles” (Bayer Schering Pharma Aktiengesellschaft, priority 2004, dated 2010).
Counter-ions that a name gives are not always drawn.

Key:
[1] = system: BT474 [human breast carcinoma, overexpressing HER2 (ErbB2)]; assay: In vitro tumor cell proliferation assay (Cell Titer-Glo luminescent cell viability), BT474 cells; format: cell-based; settings: BT-474, 72 h, 72 hours of drug exposure, Cell Titer-Glo readout, read-out: IC50, anti-proliferative activity in BT474 cells
[2] = system: A431 cells [human epidermoid carcinoma, overexpressing HER1 (EGFR, ErbB1)]; assay: In vitro tumor cell proliferation assay (Cell Titer-Glo luminescent cell viability), A431 cells; format: cell-based; settings: A-431, 72 h, 72 hours of drug exposure, Cell Titer-Glo readout, read-out: IC50, anti-proliferative activity in A431 cells

| SMILES | IC50 [1] | IC50 [2] |
| --- | --- | --- |
| Fc1cccc(COc2ccc(Nc3ncnc4sc5cc(CCn6ccnc6)ccc5c34)cc2Cl)c1 [Example 7, [3-chloro-4-(3-fluoro-benzyloxy)-phenyl]-[7-(2-imidazol-1-yl-ethyl)-benzo[4,5]thieno[2,3-d]pyrimidin-4-yl]-amine] | ≤ 5 µM | ≤ 50 µM |
| CCOC(=O)Cc1ccc2c(c1)sc1ncnc(Nc3ccc(OCc4cccc(F)c4)c(Cl)c3)c12 [Example 1, ethyl[4-({3-chloro-4-[(3-fluorobenzyl)oxy]phenyl}amino)[1]benzothieno[2,3-d]pyrimidin-7-yl]acetate] | ≤ 5 µM | ≤ 50 µM |
| O=C(Cc1ccc2c(c1)sc1ncnc(Nc3ccc(OCc4ccccn4)c(Cl)c3)c12)NCCOCCO [Example 98, 2-(4-{[3-chloro-4-(pyridin-2-ylmethoxy)phenyl]amino}[1]benzothieno[2,3-d]pyrimidin-7-yl)-N-[2-(2-hydroxyethoxy)ethyl] acetamide] | ≤ 5 µM | ≤ 50 µM |
| Fc1cccc(Cn2ncc3cc(Nc4ncnc5sc6cc(Br)ccc6c45)ccc32)c1 [Example 113, 7-bromo-N-[1-(3-fluorobenzyl)-1H-indazol-5-yl][1]benzothieno [2,3-d]pyrimidin-4-amine] | ≤ 5 µM | ≤ 50 µM |
| O=C(Cc1ccc2c(c1)sc1ncnc(Nc3ccc(OCc4cscn4)c(Cl)c3)c12)NCCN1CCOCC1 [Example 140, 2-(4-{[3-chloro-4-(1,3-thiazol-4-ylmethoxy)phenyl]amino}[1]benzothieno[2,3-d]pyrimidin-7-yl)-N-(2-morpholin-4-ylethyl) acetamide] | ≤ 5 µM | ≤ 50 µM |
| CCN1CCN(C(=O)[C@H](O)[C@@H](O)c2ccc3c(c2)sc2ncnc(Nc4ccc(OCc5cccc(F)c5)c(Cl)c4)c23)CC1 [Example 57, (1S,2R)-1-[4-({3-chloro-4-[(3-fluorobenzyl)oxy]phenyl}amino) [1]benzothieno[2,3-d]pyrimidin-7-yl]-3-(4-ethylpiperazin-1-yl)-3-oxopropane-1,2-diol] | ≤ 5 µM | ≤ 50 µM |
| O=C(O)Cc1ccc2c(c1)sc1ncnc(Nc3ccc(OCc4ccccn4)c(Cl)c3)c12 [Example 94, (4-{[3-chloro-4-(pyridin-2-ylmethoxy)phenyl]amino}[1]benzothieno[2,3-d]pyrimidin-7-yl)acetic acid] | ≤ 5 µM | ≤ 50 µM |
| O=C(Cc1ccc2c(c1)sc1ncnc(Nc3ccc(OCc4cscn4)c(Cl)c3)c12)NN1CCOCC1 [Example 144, 2-(4-{[3-chloro-4-(1,3-thiazol-4-ylmethoxy)phenyl]amino}[1]benzothieno[2,3-d]pyrimidin-7-yl)-N-morpholin-4-ylacetamide] | ≤ 5 µM | ≤ 50 µM |
| CN1CCN(C(=O)CCc2ccc3c(c2)sc2ncnc(Nc4ccc(OCc5cccc(F)c5)c(Cl)c4)c23)CC1 [Example 66, N-{3-chloro-4-[(3-fluorobenzyl)oxy]phenyl}-7-[3-(4-methylpiperazin-1-yl)-3-oxopropyl][1]benzothieno[2,3-d]pyrimidin-4-amine] | ≤ 5 µM | ≤ 50 µM |
| O=C(Cc1ccc2c(c1)sc1ncnc(Nc3ccc(OCc4cscn4)c(Cl)c3)c12)NCCOCCO [Example 145, 2-(4-{[3-chloro-4-(1,3-thiazol-4-ylmethoxy)phenyl]amino}[1]benzothieno[2,3-d]pyrimidin-7-yl)-N-[2-(2-hydroxyethoxy)ethyl] acetamide] | ≤ 5 µM | ≤ 50 µM |
| CCN1CCN(C(=O)/C=C/c2ccc3c(c2)sc2ncnc(Nc4ccc(OCc5cccc(F)c5)c(Cl)c4)c23)CC1 [Example 49, N-{3-chloro-4-[(3-fluorobenzyl)oxy]phenyl}-7-[(1E)-3-(4-ethylpiperazin-1-yl)-3-oxoprop-1-en-1-yl][1]benzothieno[2,3-d]pyrimidin-4-amine] | ≤ 5 µM | ≤ 5 µM |
| OC[C@@H](O)c1ccc2c(c1)sc1ncnc(Nc3ccc4c(cnn4Cc4cccc(F)c4)c3)c12 [Example 116, (1S)-1-(4-{[1-(3-fluorobenzyl)-1H-indazol-5-yl]amino}[1]benzothieno [2,3-d]pyrimidin-7-yl)ethane-1,2-diol] | ≤ 0.5 µM | ≤ 5 µM |
| OCC(O)c1ccc2c(c1)sc1ncnc(Nc3ccc(OCc4ccccn4)c(Cl)c3)c12 (racemic) [Example 73, 1-(4-{[3-chloro-4-(pyridin-2-ylmethoxy)phenyl]amino}[1]benzothieno[2,3-d]pyrimidin-7-yl)ethane-1,2-diol] | ≤ 0.5 µM | ≤ 5 µM |
| CCOC(=O)C(C(=O)OCC)c1ccc2c(c1)sc1ncnc(Nc3ccc4c(cnn4Cc4cccc(F)c4)c3)c12 [Example 118, diethyl (4-{[1-(3-fluorobenzyl)-1H-indazol-5-yl]amino}[1]benzothieno [2,3-d]pyrimidin-7-yl)malonate] | ≤ 5 µM | ≤ 50 µM |
| CN(C)[C@H]1CCN(C(=O)Cc2ccc3c(c2)sc2ncnc(Nc4ccc5c(cnn5Cc5cccc(F)c5)c4)c23)C1 [Example 125, 7-{2-[3-(dimethylamino)pyrrolidin-1-yl]-2-oxoethyl}-N-[1-(3-fluorobenzyl)-1H-indazol-5-yl] [1]benzothieno[2,3-d]pyrimidin-4-amine] | ≤ 0.5 µM | ≤ 5 µM |

More lines, now with the values ahead:

| IC50 [1] | IC50 [2] | SMILES |
| --- | --- | --- |
| ≤ 0.5 µM | ≤ 5 µM | Fc1cccc(COc2ccc(Nc3ncnc4sc5cc(OCCN6CCOCC6)ccc5c34)cc2Cl)c1 [Example 38, N-{3-chloro-4-[(3-fluorobenzyl)oxy]phenyl}-7-(2-morpholin-4-ylethoxy) [1]benzothieno[2,3-d]pyrimidin-4-amine] |
| ≤ 0.5 µM | ≤ 5 µM | OCCc1ccc2c(c1)sc1ncnc(Nc3ccc4c(cnn4Cc4cccc(F)c4)c3)c12 [Example 127, 2-(4-{[1-(3-fluorobenzyl)-1H-indazol-5-yl]amino}[1]benzothieno [2,3-d]pyrimidin-7-yl)ethanol] |
| ≤ 0.5 µM | ≤ 5 µM | COCCNCCc1ccc2c(c1)sc1ncnc(Nc3ccc(OCc4cccc(F)c4)c(Cl)c3)c12 [Example 9, N-{3-chloro-4-[(3-fluorobenzyl)oxy]phenyl}-7-{2-[(2-methoxyethyl)amino]ethyl}[1] benzothieno[2,3-d]pyrimidin-4-amine] |
| ≤ 0.5 µM | ≤ 50 µM | COCCN(CCOC)CCc1ccc2c(c1)sc1ncnc(Nc3ccc(OCc4ccccn4)c(Cl)c3)c12 [Example 93, 7-{2-[bis(2-methoxyethyl)amino]ethyl}-N-[3-chloro-4-(pyridin-2-ylmethoxy)phenyl][1]benzothieno [2,3-d]pyrimidin-4-amine trifluoroacetate] |
| ≤ 0.5 µM | ≤ 50 µM | COCCNC(=O)/C=C/c1ccc2c(c1)sc1ncnc(Nc3ccc(OCc4cccc(F)c4)c(Cl)c3)c12 [Example 50, (2E)-3-[4-({3-chloro-4-[(3-fluorobenzyl)oxy]phenyl}amino) [1]benzothieno[2,3-d]pyrimidin-7-yl]-N-(2-methoxyethyl)acrylamide] |
| ≤ 0.5 µM | ≤ 50 µM | OCCNCCc1ccc2c(c1)sc1ncnc(Nc3ccc(OCc4ccccn4)c(Cl)c3)c12 [Example 88, 2-{[2-(4-{[3-chloro-4-(pyridin-2-ylmethoxy)phenyl]amino}[1]benzothieno[2,3-d]pyrimidin-7-yl)ethyl]amino}ethanol trifluoroacetate (salt)] |
| ≤ 0.5 µM | ≤ 50 µM | Fc1cccc(COc2ccc(Nc3ncnc4sc5cc(CCNCCN6CCOCC6)ccc5c34)cc2Cl)c1 [Example 16, N-{3-chloro-4-[(3-fluorobenzyl)oxy]phenyl}-7-{2-[(2-morpholin-4-ylethyl)amino]ethyl}[1] benzothieno[2,3-d]pyrimidin-4-amine] |
| ≤ 0.5 µM | ≤ 5 µM | OC[C@@H](O)c1ccc2c(c1)sc1ncnc(Nc3ccc(OCc4cccc(F)c4)c(Cl)c3)c12 [Example 26, (1S)-1-[4-({3-chloro-4-[(3-fluorobenzyl)oxy]phenyl}amino)[1]benzothieno[2,3-d]pyrimidin-7-yl]ethane-1,2-diol] |
| ≤ 0.5 µM | ≤ 5 µM | OCC(O)C(O)c1ccc2c(c1)sc1ncnc(Nc3ccc(OCc4cccc(F)c4)c(Cl)c3)c12 (stereo not shown) [Example 62, 1-[4-({3-chloro-4-[(3-fluorobenzyl)oxy]phenyl}amino)[1]benzothieno[2,3-d]pyrimidin-7-yl]propane-1,2,3-triol] |
| ≤ 0.5 µM | ≤ 5 µM | Fc1cccc(COc2ccc(Nc3ncnc4sc5cc(CCN6CCCCC6)ccc5c34)cc2Cl)c1 [Example 17, N-{3-chloro-4-[(3-fluorobenzyl)oxy]phenyl}-7-(2-piperidin-1-ylethyl)[1] benzothieno[2,3-d]pyrimidin-4-amine] |
| ≤ 0.5 µM | ≤ 50 µM | C=Cc1ccc2c(c1)sc1ncnc(Nc3ccc4c(cnn4Cc4ccccn4)c3)c12 [Example 130, N-[1-(pyridin-2-ylmethyl)-1H-indazol-5-yl]-7-vinyl[1] benzothieno[2,3-d]pyrimidin-4-amine] |
| ≤ 0.5 µM | ≤ 5 µM | COCCN(CCOC)CCc1ccc2c(c1)sc1ncnc(Nc3ccc(OCc4cccc(F)c4)c(Cl)c3)c12 [Example 6, 7-{2-[bis(2-methoxyethyl)amino]ethyl}-N-{3-chloro-4-[(3-fluorobenzyl)oxy]phenyl}[1] benzothieno[2,3-d]pyrimidin-4-amine] |
| ≤ 0.5 µM | ≤ 50 µM | Fc1cccc(Cn2ncc3cc(Nc4ncnc5sc6cc(N7CCOCC7)ccc6c45)ccc32)c1 [Example 120, N-[1-(3-fluorobenzyl)-1H-indazol-5-yl]-7-morpholin-4-yl[1] benzothieno[2,3-d]pyrimidin-4-amine] |
| ≤ 0.5 µM | ≤ 5 µM | OC[C@H](O)c1ccc2c(c1)sc1ncnc(Nc3ccc4c(cnn4Cc4cccc(F)c4)c3)c12 [Example 117, (1R)-1-(4-{[1-(3-fluorobenzyl)-1H-indazol-5-yl]amino}[1]benzothieno [2,3-d]pyrimidin-7-yl)ethane-1,2-diol] |
